Results taken from US7094801B2, “Chalcone derivatives and their use to treat diseases” (Atherogenics, Inc., priority 2001, dated 2006).

What was measured:
Balb/C mice = assay: Asthma Protocol (ovalbumin sensitized and challenged mice, bronchoaveolar lavage); assay type: in vivo, mouse; conditions: sc, daily dosing at 100 mg/kg from day 0–13, lavage fluid
Description: Balb/C mice (6–8 weeks old) are sensitized to ovalbumin (ova) (8 ug ova absorbed in 3.3 mg Alum inject) on days 0 and 5. On day 12, the mice were aerosol challenged with 0.5% ovalbumin dissolved in sterile saline for 1 hr in the AM, and then again in the PM (at least 4 hr apart). On day 14, the mice were anesthetized with ketamine/xylazine/acepromazine cocktail, exsanguinated, and then euthanized. Following blood collection, bronchoaveolar lavage was performed on each animal. Total cell counts were conducted on the lavage fluid, which was subsequently diluted with cell media 1:1. Slides of the lavage fluid were made by spinning the samples with a cytospin centrifuge. Slides were airdried and stained with x. Cell differentials of the lavage fluid were completed at the conclusion of the study. All compounds except Example 2 were well tolerated with no body weight loss throughout the course of the study. Statistical analysis involved ANOVA and Tukey-Kramer post hoc tests. Compounds were administered except where noted by subcutaneous injection once daily from day 0–13. The formulations used contained various mixtures of the following excipients (pharmasolve, cremophor RH 40, tween 80, PEG 300). See Biological Table 3

VCAM-1 = assay: In Vitro VCAM-1 Assay (TNF-α stimulated HAEC or HPAEC, cell ELISA); assay type: cell-based, human; conditions: Homo sapiens, 16 h, TNF-α (1 ng/ml) stimulated HAEC or HPAEC, approximately 16 hours
Method in brief: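 Primary human aortic or pulmonary endothelial cells (below passage 9) stimulated with TNF-α (1 ng/ml) plus compound (four concentrations, ≤0.25% DMSO) for about 16 h. Surface VCAM-1 detected by cell ELISA (HRP/TMB, OD 450 nm). IC50 taken as the concentration giving 50% inhibition of the TNF-α-only response.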

Structure (SMILES) | melting point | % Inhibition (Balb/C mice) [%] | IC50 (VCAM-1) [µM]
COc1cc(OC)c(-c2cc3ccccc3n2C(=O)OC(C)(C)C)cc1/C=C/C(=O)c1ccc(C(=O)O)cc1 [Example 36, 2-{5-[3-(4-Carboxy-phenyl)-3-oxo-E-propenyl]-2,4-dimethoxy-phenyl}-indole-1-carboxylic acid tert-butyl ester] | 182 to 183 °C | 71 | < 5
COc1cc(OC)c(-c2cn[nH]c2)cc1/C=C/C(=O)c1ccc(C(=O)O)cc1 [Example 74, 4-{3E-[2,4-Dimethoxy-5-(1H-pyrazol-4-yl)-phenyl]-acryloyl}-benzoic acid] | > 250 °C |  | > 10
COc1cc(OC)c(-c2nn[nH]n2)cc1/C=C/C(=O)c1ccc(C(=O)O)cc1 [Example 75, 4-{3E-[2,4-Dimethoxy-5-(2H-tetrazol-5-yl)-phenyl]-acryloyl}-benzoic acid] | 218 °C (dec.) |  | > 10
COc1cc(OC)c(-c2nc3cccnc3[nH]2)cc1/C=C/C(=O)c1ccc(C(=O)O)cc1 [Example 76, 4-{3E-[5-(3H-Imidazo[4,5-b]pyridin-2-yl)-2,4-dimethoxy-phenyl]-acryloyl}-benzoic acid] | 222 to 224 °C |  | > 10
COc1cc(OC)c(-c2cccs2)cc1/C=C/C(=O)c1ccc(-c2nn[nH]n2)cc1 [Example 78, 3E-(2,4-Dimethoxy-5-thiophen-2-yl-phenyl)-1-[4-(2H-tetrazol-5-yl)-phenyl]-propenone] | 235 °C (dec.) |  | < 10
COc1cc(OCCN2CCOCC2)c(/C=C/C(=O)c2ccc(S(N)(=O)=O)cc2)cc1-c1cccs1 [Example 81, 4-{3E-[4-Methoxy-2-(2-morpholin-4-yl-ethoxy)-5-thiophen-2-yl-phenyl]-acryloyl}-benzenesulfonamide] | 186 to 188 °C |  | < 1
COc1cc(OC)c(-c2cc3ccccc3n2C(=O)OC(C)(C)C)cc1/C=C/C(=O)c1ccc(S(N)(=O)=O)cc1 [Example 83, 2-{2,4-Dimethoxy-5-[3-oxo-3-(4-aminosulfonyl-phenyl)-E-propenyl]-phenyl}-indole-1-carboxylic acid tert-butyl ester] | 120 to 122 °C |  | < 1
COc1cc(OC)c(-c2cc3ccccc3[nH]2)cc1/C=C/C(=O)c1ccc(S(N)(=O)=O)cc1 [Example 84, 4-{3E-[5-(1H-Indol-2-yl)-2,4-dimethoxy-phenyl]-acryloyl}-benzenesulfonamide] | 185 to 187 °C |  | < 5
COc1cc(OCCCN2CCOCC2)c(/C=C/C(=O)c2ccc(S(N)(=O)=O)cc2)cc1-c1cccs1 [Example 85, 4-{3E-[4-Methoxy-2-(3-morpholin-4-yl-propoxy)-5-thiophen-2-yl-phenyl]-acryloyl}-benzenesulfonamide] | 193 to 196 °C |  | < 1
COc1cc(OC)c(-c2cc3ccccc3s2)cc1/C=C/C(=O)c1ccc(S(=O)(=O)NC(=O)C(C)C)cc1 [Example 87, 4-[3E-(5-Benzo[b]thiophen-2-yl-2,4-dimethoxy-phenyl)-acryloyl]-N-isobutyryl-benzenesulfonamide] | > 240 °C (dec.) |  | < 1
COc1cc(OC)c(-c2cc3ccccc3s2)cc1/C=C/C(=O)c1ccc(C(=O)NCC(F)(F)F)cc1 [Example 91, 4-[3E-(5-Benzo[b]thiophen-2-yl-2,4-dimethoxy-phenyl)-acryloyl]-N-(2,2,2-trifluoro-ethyl)-benzamide] | 215 to 217 °C |  | < 5
COc1cc(OCCN2CCOCC2)c(/C=C/C(=O)c2ccc(C(N)=O)cc2)cc1-c1cccs1 [Example 92, 4-{3E-[4-Methoxy-2-(2-morpholin-4-yl-ethoxy)-5-thiophen-2-yl-phenyl]-acryloyl}-benzamide] | 183 to 184 °C |  | < 1
COc1cc(OC)c(-c2cc3ccccc3s2)cc1/C=C/C(=O)c1ccc(C(N)=O)cc1 [Example 93, 4-[3E-(5-Benzo[b]thiophen-2-yl-2,4-dimethoxy-phenyl)-acryloyl]-benzamide] | 240 to 241 °C |  | < 1
COc1cc(OCCCN2CCOCC2)c(/C=C/C(=O)c2ccc(C(N)=O)cc2)cc1-c1cccs1 [Example 94, 4-{3E-[4-Methoxy-2-(3-morpholin4-yl-propoxy)-5-thiophen-2-yl-phenyl]-acryloyl}-benzamide] | 81 to 83 °C |  | < 1
COc1cc(OC)c(-c2cc3ccccc3s2)cc1/C=C/C(=O)c1ccc(C(=O)NC(C)=O)cc1 [Example 95, N-Acetyl-4-[3E-(5-benzo[b]thiophen-2-yl-2,4-dimethoxy-phenyl)-acryloyl]-benzamide] | 228 to 229 °C |  | < 1
COc1cc(OC)c(-c2cc3ccccc3s2)cc1/C=C/C(=O)c1ccc(C(=O)NC(=O)C(C)C)cc1 [Example 96, 4-[3E-(5-Benzo[b]thiophen-2-yl-2,4-dimethoxy-phenyl)-acryloyl]-N-isobutyryl-benzamide] | 208 to 209 °C |  | < 5
COc1cc(OC(C)(C)C(=O)O)c(-c2cccs2)cc1/C=C/C(=O)c1ccc(NS(C)(=O)=O)cc1 [Example 100, 2-{4-[3-(4-Methanesulfonylamino-phenyl)-3-oxo-E-propenyl]-5-methoxy-2-thiophen-2-yl-phenoxy}-2-methyl-propionic acid] | 181 to 183 °C |  | > 10
COc1cc(OC(C)(C)C(=O)O)c(-c2cccs2)cc1/C=C/C(=O)c1ccc(N(C)S(C)(=O)=O)cc1 [Example 101, 2-(4-{3-[4-(Methanesulfonyl-methyl-amino)-phenyl]-3-oxo-E-propenyl}-5-methoxy-2-thiophen-2-yl-phenoxy)-2-methyl-propionic acid] | 197 to 200 °C |  | > 10
COc1cc(OC)c(-c2cc3ccccc3s2)cc1/C=C/C(=O)c1ccc(Nc2c(N)c(=O)c2=O)cc1 [Example 102, 3-Amino-4-{4-[3E-(5-benzo[b]thiophen-2-yl-2,4-dimethoxy-phenyl)-acryloyl]-phenylamino}-cyclobut-3-ene-1,2-dione] | > 260 °C |  | > 10
COc1cc(OCC(CO)CO)c(-c2cccs2)cc1/C=C/C(=O)c1ccc(S(N)(=O)=O)cc1 [Example 106, 4-{3E-[4-(3-Hydroxy-2-hydroxymethyl-propoxy)-2-methoxy-5-thiophen-2-yl-phenyl]-acryloyl}-benzenesulfonamide] | 191 to 192 °C |  | < 10
COc1cc(OC)c(-c2cc3ccccc3s2)cc1/C=C/C(=O)c1ccc(C(C)=O)cc1 [Example 108, 1-(4-Acetyl-phenyl)-3E-(5-benzo[b]thiophen-2-yl-2,4-dimethoxy-phenyl)-propenone] | 165 to 167 °C |  | < 10
COc1cc(OC)c(-c2nncn2CC(C)C)cc1/C=C/C(=O)c1ccc(C(=O)O)cc1 [Example 110, 4-{3E-[5-(4-Isobutyl-4H-[1,2,4]triazol-3-yl)-2,4-dimethoxy-phenyl]-acryloyl}-benzoic acid] | > 240 °C (dec.) |  | > 10
COc1cc(OC)c(-c2c[nH]c(C3CC3)n2)cc1/C=C/C(=O)c1ccc(S(N)(=O)=O)cc1 [Example 111, 4-{3E-[5-(2-Cyclopropyl-1H-imidazol-4-yl)-2,4-dimethoxy-phenyl]-acryloyl}-benzenesulfonamide] | 156 to 160 °C |  | > 10
COc1cc(OCc2nc3ccccc3[nH]2)c(/C=C/C(=O)c2ccc(S(N)(=O)=O)cc2)cc1-c1cccs1 [Example 113, 4-{3E-[2-(1H-Benzoimidazol-2-ylmethoxy)-4-methoxy-5-thiophen-2-yl-phenyl]-acryloyl}-benzenesulfonamide] | 235 to 237 °C (dec.) |  | < 5
COc1cc(OCc2ccccn2)c(/C=C/C(=O)c2ccc(S(N)(=O)=O)cc2)cc1-c1cccs1 [Example 114, 4-{3E-[4-Methoxy-2-(pyridin-2-ylmethoxy)-5-thiophen-2-yl-phenyl]-acryloyl}-benzenesulfonamide] | 188 to 189 °C |  | < 5
COc1cc(OCn2nnc3ccccc32)c(/C=C/C(=O)c2ccc(S(N)(=O)=O)cc2)cc1-c1cccs1 [Example 115, 4-{3E-[2-(Benzotriazol-1-ylmethoxy)-4-methoxy-5-thiophen-2-yl-phenyl]-acryloyl}-benzenesulfonamide] | 255 °C (dec.) |  | < 5
COc1cc(OC)c(-c2cc3ccccc3n2C)cc1/C=C/C(=O)c1ccc(S(N)(=O)=O)cc1 [Example 117, 4-{3E-[2,4-Dimethoxy-5-(1-methyl-1H-indol-2-yl)-phenyl]-acryloyl}-benzenesulfonamide] | 148 to 150 °C |  | < 5
COC(=O)c1ccc(C(=O)/C=C/c2cc(-c3cc4ccccc4s3)c(OC)cc2OC)cc1 [Example 118, 4-[3E-(5-Benzo[b]thiophen-2-yl-2,4-dimethoxy-phenyl)-acryloyl]-benzoic acid methyl ester] | 149 to 151 °C |  | < 10
